How the values were obtained:
COS-7 [1] = test: Inhibitory concentration against AP-1 transcription in COS-7 cells; details: Chlorocebus aethiops
[2] = biological target: T1, Dual specificity mitogen-activated protein kinase kinase 1 (Homo sapiens, UniProt Q02750); test: Inhibitory potency against mitogen activated protein kinase kinase 1
Target sequence in this assay (Q02750 whole entry): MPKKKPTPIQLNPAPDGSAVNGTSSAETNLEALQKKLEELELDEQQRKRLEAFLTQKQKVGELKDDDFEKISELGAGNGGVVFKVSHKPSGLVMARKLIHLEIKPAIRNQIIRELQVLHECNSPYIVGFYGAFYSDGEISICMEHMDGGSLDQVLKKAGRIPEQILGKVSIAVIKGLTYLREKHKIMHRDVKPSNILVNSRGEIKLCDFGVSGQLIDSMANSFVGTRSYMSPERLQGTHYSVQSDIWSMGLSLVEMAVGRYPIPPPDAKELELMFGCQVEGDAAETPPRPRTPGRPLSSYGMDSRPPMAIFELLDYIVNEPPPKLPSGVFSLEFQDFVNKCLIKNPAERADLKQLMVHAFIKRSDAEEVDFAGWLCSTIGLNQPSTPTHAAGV

COS-7 [3] = system: COS-7
[4] = biological target: T1, Dual specificity mitogen-activated protein kinase kinase 1; test: Inhibitory potency against mitogen activated protein kinase kinase 1 at 10 uM
Target sequence in this assay (Q02750 whole entry, looked up): as the sequence (Q02750 whole entry) above

[5] = Inhibitory potency against Mitogen activated protein kinase kinase 4; type: functional
[6] = biological target: T2, Dual specificity mitogen-activated protein kinase kinase 3 (Homo sapiens, UniProt P46734); test: Inhibitory potency against MAP kinase kinase 3 (MKK3); type: functional
T2 sequence (P46734 whole entry): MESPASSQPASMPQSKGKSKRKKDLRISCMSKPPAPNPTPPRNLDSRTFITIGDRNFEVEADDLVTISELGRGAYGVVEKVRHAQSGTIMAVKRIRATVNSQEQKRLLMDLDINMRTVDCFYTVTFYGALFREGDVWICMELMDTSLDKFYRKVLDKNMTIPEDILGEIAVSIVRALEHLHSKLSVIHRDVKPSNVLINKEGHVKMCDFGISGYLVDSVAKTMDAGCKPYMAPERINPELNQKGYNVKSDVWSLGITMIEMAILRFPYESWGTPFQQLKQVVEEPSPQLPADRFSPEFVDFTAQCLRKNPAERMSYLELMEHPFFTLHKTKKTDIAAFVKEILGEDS

Mus musculus = test: In vivo effective dose against TPA-induced ear edema in mouse upon intraperitoneal administration; type: functional; details: ip

Row | SMILES | IC50 [2] [µM] | IC50 (COS-7 [1]) [µM] | also measured
1 | N#C/C(=C(/N)Sc1ccc(N)cc1)c1cccc(Cc2ccccc2)c1 | – | 38.8 | –
2 | N#C/C(=C(/N)Sc1ccccc1N)c1cccc(C(O)c2cccnc2)c1 (stereo not drawn) | – | 2.72 | –
3 | CC(O)(c1ccccc1)c1cccc(/C(C#N)=C(\N)Sc2ccccc2N)c1 (stereo not drawn) | – | – | IC50 (COS-7 [3]): Not Active
4 | N#C/C(=C(/N)Sc1ccc(N)cc1)c1cccc(C(O)c2ccccc2)c1 (stereo not drawn) | – | 10.7 | –
5 | N#C/C(=C(/N)Sc1ccccc1N)c1cccc(Oc2ccccc2)c1 | – | 3.03 | –
6 | CN(C(=O)c1cccc(/C(C#N)=C(\N)Sc2ccc(N)cc2)c1)c1ccccc1 | – | – | inhibition [4]: 45%
7 | N#C/C(=C(/N)Sc1ccccc1N)c1cccc(C(O)c2ccoc2)c1 (stereo not drawn) | – | 7.02 | –
8 | Cc1ccccc1C(O)c1cccc(/C(C#N)=C(\N)Sc2ccc(N)cc2)c1 (stereo not drawn) | – | 3.67 | –
9 | N#CC(=C(/N)Sc1ccccc1N)/C(C#N)=C(\N)Sc1ccccc1N | – | 1 | –
10 | Cc1cccc(C(O)c2cccc(/C(C#N)=C(\N)Sc3ccc(N)cc3)c2)c1 (stereo not drawn) | – | – | IC50 (COS-7 [3]): Not Active
11 | N#C/C(=C(/N)Sc1ccccc1N)c1cccc(Cc2ccccc2)c1 | – | 3.2 | –
12 | Cc1ccccc1C(O)c1cccc(/C(C#N)=C(\N)Sc2ccccc2N)c1 (stereo not drawn) | – | 2.69 | –
13 | Cc1ccc(C(O)c2cccc(/C(C#N)=C(\N)Sc3ccccc3N)c2)cc1 (stereo not drawn) | – | 3 | –
14 | COc1ccccc1S/C(N)=C(\C#N)c1cccc(C(O)c2ccc(C#N)cc2)c1 (stereo not drawn) | – | – | IC50 (COS-7 [3]): Not Active
15 | Cc1cccc(C(O)c2cccc(/C(C#N)=C(\N)Sc3ccccc3N)c2)c1 (stereo not drawn) | – | 2.4 | –
16 | N#C/C(=C(/N)Sc1ccccc1N)c1cccc(C(=O)c2ccccc2)c1 | – | 6.17 | –
17 | N#C/C(=C(/N)Sc1ccccc1N)c1cccc(C(O)c2ccccc2)c1 (stereo not drawn) | – | 2.07 | –
18 | N#C/C(=C(/N)Sc1ccccc1N)c1ccc(C(=O)c2ccccc2)cc1 | – | 3.13 | –
19 | Cc1ccc(C(O)c2cccc(/C(C#N)=C(\N)Sc3ccc(N)cc3)c2)cc1 (stereo not drawn) | – | – | IC50 (COS-7 [3]): Not Active
20 | N#C/C(=C(/N)Sc1ccccc1N)c1cccc(C(O)c2ccccn2)c1 (stereo not drawn) | – | 11.8 | –
21 | N#C/C(=C(/N)Sc1ccccc1N)c1cccc(C(O)Cc2ccccc2)c1 (stereo not drawn) | – | 19.9 | –
22 | N#C/C(=C(/N)Sc1ccccc1N)c1cccc(C(O)c2ccncc2)c1 (stereo not drawn) | – | 1.4 | IC50 [5]: > 1 µM; IC50 [6]: > 1 µM; ED50 (Mus musculus): 5 mg/kg
23 | N#C/C(=C(/N)Sc1ccccc1N)c1cccc(C(O)c2ccco2)c1 (stereo not drawn) | – | 12.2 | –
24 | N#C/C(=C(/N)Sc1ccccc1O)c1cccc(C(O)c2ccc(C#N)cc2)c1 (stereo not drawn) | – | 0.64 | –

Second part, led by results:

Row | IC50 [2] [µM] | SMILES | IC50 (COS-7 [1]) [µM] | also measured
25 | 0.008 | N#C/C(=C(/N)Sc1ccccc1N)c1cccc(C(O)c2ccc([N+](=O)[O-])cc2)c1 (stereo not drawn) | 0.3 | –
26 | 0.076 | N#C/C(=C(/N)Sc1ccccc1N)c1cccc(C(O)c2ccc3ccccc3c2)c1 (stereo not drawn) | 3.25 | –
27 | 0.14 | N#CC(=C(N)Sc1ccccc1N)c1ccccc1 | – | –
28 | 0.255 | N#C/C(=C(/N)Sc1ccccc1N)c1cccc(C(O)c2ccc(-c3nnn(C(c4ccccc4)(c4ccccc4)c4ccccc4)n3)cc2)c1 (stereo not drawn) | 6.88 | –
29 | 0.33 | C[n+]1ccc(C(O)c2cccc(/C(C#N)=C(\N)Sc3ccccc3N)c2)cc1 (stereo not drawn) | 50 | –
30 | 0.025 | N#C/C(=C(/N)Sc1ccccc1N)c1cccc(C(O)c2ccc3c(c2)OCCO3)c1 (stereo not drawn) | 2.1 | –
31 | 0.014 | COC(=O)c1ccc(C(O)c2cccc(/C(C#N)=C(\N)Sc3ccccc3N)c2)cc1 (stereo not drawn) | 0.29 | –
32 | 0.017 | N#C/C(=C(/N)Sc1ccccc1N)c1cccc(C(O)c2ccsc2)c1 (stereo not drawn) | 2.4 | –
33 | 0.008 | N#C/C(=C(/N)Sc1ccccc1N)c1cccc(C(O)c2ccc([N+](=O)[O-])cc2[N+](=O)[O-])c1 (stereo not drawn) | 0.3 | –
34 | 0.044 | N#C/C(=C(/N)Sc1ccccc1N)c1cccc(C(O)c2c(F)c(F)c(F)c(F)c2F)c1 (stereo not drawn) | – | –
35 | 0.34 | CC(C)(O)c1cccc(/C(C#N)=C(\N)Sc2ccccc2N)c1 | 40 | –
36 | 0.025 | N#C/C(=C(/N)Sc1ccccc1O)c1cccc(C(O)c2cccc([N+](=O)[O-])c2)c1 (stereo not drawn) | 3.22 | –
37 | 0.056 | N#C/C(=C(/N)Sc1ccccc1N)c1cccc(C(O)C2CCCCC2)c1 (stereo not drawn) | 4.51 | –
38 | 0.053 | N#C/C(=C(/N)Sc1ccc(N)cc1)c1cccc(C(O)c2ccc(C#N)cc2)c1 (stereo not drawn) | – | –
39 | 0.057 | N#C/C(=C(/N)Sc1ccccc1N)c1cccc(C(O)c2ccc(C(F)(F)F)cc2)c1 (stereo not drawn) | 3.97 | –
40 | 0.053 | N#C/C(=C(/N)Sc1ccccc1N)c1cccc(C(O)c2cccc(C(F)(F)F)c2)c1 (stereo not drawn) | 5.7 | –
41 | 0.013 | N#C/C(=C(/N)Sc1ccccc1N)c1cccc(C(O)c2cccc(C#N)c2)c1 (stereo not drawn) | 1.08 | –
42 | 0.017 | N#C/C(=C(/N)Sc1ccccc1N)c1cccc(C(O)c2cccs2)c1 (stereo not drawn) | 2.22 | –
43 | 0.053 | N#C/C(=C(/N)Sc1ccccc1)c1cccc(C(O)c2ccc(C#N)cc2)c1 (stereo not drawn) | 1.2 | –
44 | 0.047 | N#C/C(=C(/N)Sc1ccccc1N)c1cccc(C(O)c2cccc3ccccc23)c1 (stereo not drawn) | 2.59 | –
45 | 4.01 | CN(C(=O)c1cccc(/C(C#N)=C(\N)Sc2ccccc2N)c1)c1ccccc1 | – | –
46 | 0.017 | N#C/C(=C(/N)Sc1ccccc1N)c1cccc(C(O)c2cccc([N+](=O)[O-])c2)c1 (stereo not drawn) | 1.6 | –
47 | 0.007 | N#C/C(=C(/N)Sc1ccccc1N)c1cccc(C(O)c2ccc(C#N)cc2)c1 (stereo not drawn) | 0.32 | –
48 | 0.183 | CC(O)c1cccc(/C(C#N)=C(\N)Sc2ccccc2N)c1 (stereo not drawn) | 66.7 | –
49 | 2.22 | N#C/C(=C(/N)Sc1ccccc1N)c1cccc(C(O)(c2ccccc2)c2ccccc2)c1 | – | IC50 (COS-7 [3]): Not Active
